Measured values reported in PMC11623267, “Inhibitors of malaria parasite cyclic nucleotide phosphodiesterases block asexual blood-stage development and mosquito transmission” (Science Advances, 2024).
Like-named read-outs stand apart in the source and are kept apart here.

Columns and labels:
[1] = system: HepG2 cells; assay: HepG2 cytotoxicity; type: cell-based
Excerpt: Table 1. Key activity data for the three main chemical subseries against ABS parasites, parasite fractions, and HepG2 cells. ND, not determined; ×/÷ is the geometric mean with geometric SD. | column: HepG2 EC50 (nM) (selectivity index)

[2] = system: P. falciparum NF54-HGL stage V gametocytes fed to A. stephensi mosquitoes; assay: SMFA dose response (luminescence); type: in vivo, Plasmodium falciparum
Protocol: Compounds were diluted in DMSO and then in culture medium (RPMI 1640 supplemented with 367 μM hypoxanthine, 25 mM Hepes, 25 mM sodium bicarbonate, and 10% human type A serum) to achieve a final DMSO concentration of 0.1%. Compounds were incubated with stage V gametocytes from the P. falciparum NF54-HGL reporter strain ([60]) for 48 hours at 37°C in Eppendorf tubes. Subsequently, parasites were pelleted by centrifugation (20 s at 20,000g) and resuspended in human type A serum containing diluted compound (final DMSO concentration of 0.1%) and human type O RBCs to achieve a hematocrit of 50%. This blood meal was then fed to 3- to 5-day-old A. stephensi mosquitoes [Sind-Kasur Nijmegen strain ([61])] for 10 min. Following feeding, unfed mosquitoes were removed, and mosquitoes were maintained at 26°C and 70 to 80% relative humidity. Eight days after feeding, oocyst intensity and prevalence were assessed by luminescence measurement of individual mosquitoes as described ([60]). All conditions were tested in duplicate, and for each replicate, a total of 24 mosquitoes were analyzed. IC50 values were estimated by fitting a four-parameter Hill model to the data using least squares to find the best fit. Controls included vehicle (0.1% DMSO) and 10 μM DHA.

[3] = system: P. falciparum Dd2; assay: Ex vivo 72-hour SYBR Green assay, Dd2 control (Uganda); type: cell-based, Plasmodium falciparum; conditions: Ugandan ex vivo assay control; read-out: EC50 lab strain Dd2
Protocol: (§1) Samples were delivered to the adjacent IDRC laboratory at Tororo District Hospital or transported by car from Masafu Hospital on the day of collection for storage of blood spots on filter paper (for isolation of nucleic acids) and initiation of ex vivo culture of malaria parasites. […] Before assay, 10 mM antimalarial stock compounds were diluted as necessary in DMSO and stored at −20°C. […] Compounds were serially diluted threefold in a 96-well assay plate in complete medium to a final volume of 50 μl, in columns 1 to 10, with concentrations optimized to capture full dose-response curves. Column 11 contained compound-free controls, while column 12 contained uninfected human RBC controls. Parasite culture (150 μl) was added to columns 1 to 11 of the assay plate with a final volume of 200 μl per well, 0.2% parasitemia, and 2% hematocrit. […] Thawed plates were incubated with SYBR Green lysis buffer for 1 hour in the dark as previously reported ([62]). Fluorescence was quantified using a BMG Fluostar Optima plate reader at an excitation of 485 nm and an emission of 530 nm, and data were plotted using GraphPad Prism 7. The data were curve fit with a variable slope function to estimate IC50 values. For each isolate, a Z′ factor to assess assay quality was calculated from positive controls (eight drug-free wells) and negative controls (eight parasite-free, red cell control wells). Z′ values over 0.5 were considered good assays, but each curve was also examined by eye for suitability. Some assays with Z′ below 0.5 may be considered valid depending on factors such as the SE of the curve-fit IC50.

[4] = system: P. falciparum 3D7; assay: Ex vivo 72-hour SYBR Green assay, 3D7 control (Uganda); type: cell-based, Plasmodium falciparum; conditions: Ugandan ex vivo assay control; read-out: EC50 lab strain 3D7
Protocol: as §1

| SMILES | EC50 ([1]; Homo sapiens, HepG2) [µM] | HepG2 selectivity index ([1]; value in brackets after HepG2 EC50) | IC50 ([2]; read-out: SMFA IC50 infection (transmission) prevalence, 48 hours incubation; oocysts 8 days after feeding) [µM] | IC50 ([2]; read-out: SMFA IC50 infection (transmission) prevalence; 48 hours incubation; oocysts 8 days after feeding) [µM] | IC50 ([2]; read-out: SMFA IC50 oocyst (transmission) intensity, 48 hours incubation; oocysts 8 days after feeding) [µM] | IC50 ([2]; read-out: SMFA IC50 oocyst (transmission) intensity; 48 hours incubation; oocysts 8 days after feeding) [µM] | EC50 [3] [µM] | EC50 [4] [µM] |
| --- | --- | --- | --- | --- | --- | --- | --- | --- |
| CC(C)c1n[nH]c2c(=O)[nH]c(Cc3ccc(F)cc3F)nc12 [SAL-0010003] | > 25 | > 77 | 0.116 | 0.116 | 0.0673 | 0.067 |  |  |
| CC(C)c1[nH]nc2c(=O)[nH]c(Cc3ccccc3F)nc12 [SAL-0010042] |  |  |  |  |  |  | 0.115 | 0.132 |
